US20240391940A1, “FUSED RING-CONTAINING COMPOUND, APPLICATION THEREOF, AND COMPOSITION CONTAINING SAME” (GenEros Biopharma Ltd., priority 2020, published 2024)
“And” between values parts separate entries of the source, which are not always exact repeats. Equal values may be shown once.

Tested on: adjuvant arthritis (AIA) rat model
Experiment: Rat AIA (adjuvant arthritis) model
Assay type: in vivo, Lewis rats
Settings: for Hind paw volume / body weight / clinical scores: 10 mg/kg daily from day 9, individual animals, 10 mg/kg

With `O=C(Cc1ccc2ncccc2c1)N1CCC(n2c(=O)[nH]c3cccc(C(F)(F)F)c32)CC1` [GEN1-117, 1-(1-(2-(Quinolin-6-yl)acetyl)piperidin-4-yl)-7-(trifluoromethyl)-1H-benzo[d]imidazol-2(3H)-one] the “Maximum arthritis index score compared to the control rats” value was “can effectively relieve the AIA rat arthritis disease model”, the Body weight change (AIA rats, GEN1-117 intervention group) was “gained significant weight” and the “Increase in hind paw volume and clinical score” value (AIA rats, daily intraperitoneal injection) was “dose-dependently inhibited”. For the same molecule, the Hind paw volume (AIA rats, day 9) was 1.23 and 1.41 and 1.46 and 1.38 (2×) and 1.18 and 1.15 and 1.31 and 1.35 and 1.12 and 1.68 and 1.27, the “body weight” value (AIA rats, day 9) was 166 g and 154 g (2×) and 153 g (2×) and 158 g and 145 g and 169 g (2×) and 175 g and 168 g and 164 g and the clinical scores (AIA rats, day 9) was 0 (9×) and 0.17 and 1 (2×). The “body weight” value (AIA rats, day 10) was 156 g and 151 g and 155 g and 152 g (2×) and 143 g and 135 g and 159 g and 165 g and 158 g (3×), the Hind paw volume (AIA rats, day 11) was 1.19 and 1.3 (2×) and 1.65 and 0.97 and 1.17 and 1.18 (2×) and 1.13 and 1.08 and 1.92 and 1.23 and the “body weight” value (AIA rats, day 11) was 156 g and 150 g and 153 g and 152 g and 140 g and 132 g and 155 g (2×) and 164 g and 158 g and 157 g and 146 g. For the same molecule, the clinical scores (AIA rats, day 11) was 0 (8×) and 0.75 and 2.5 and 1.5 and 0.5, the “body weight” value (AIA rats, day 12) was 158 g and 153 g and 154 g and 155 g and 143 g and 137 g and 159 g and 164 g and 160 g and 156 g and 162 g and 148 g and the Hind paw volume (AIA rats, day 13) was 1.25 (2×) and 1.93 and 2.35 and 1.08 and 1.26 (2×) and 0.84 and 1.38 and 1.03 and 2.32 and 1.28. The “body weight” value (AIA rats, day 13) was 157 g and 158 g and 155 g and 159 g and 145 g and 143 g and 161 g (2×) and 167 g and 165 g and 169 g and 149 g, the clinical scores (AIA rats, day 13) was 0 (7×) and 1 (2×) and 3 and 0.17 and 1.67 and the “body weight” value (AIA rats, day 14) was 164 g (2×) and 160 g and 155 g and 166 g and 151 g and 150 g (2×) and 170 g (2×) and 173 g and 172 g. The Hind paw volume (AIA rats, day 15) was 1.27 (2×) and 2.03 and 2.2 and 1.04 and 1.1 and 1.38 and 1.08 and 1.11 and 1.26 and 2.93 and 1.66, the “body weight” value (AIA rats, day 15) was 162 g and 159 g and 151 g (2×) and 169 g and 154 g and 176 g and 174 g (2×) and 170 g and 175 g and 149 g and the clinical scores (AIA rats, day 15) was 0 (4×) and 2 (2×) and 5.5 and 0.17 (4×) and 3.5. For the same molecule, the “body weight” value (AIA rats, day 16) was 165 g and 164 g and 158 g and 135 g and 156 g and 155 g and 180 g and 177 g and 179 g and 175 g and 176 g and 147 g, the “body weight” value (AIA rats, day 17) was 169 g and 170 g and 152 g and 181 g and the clinical scores (AIA rats, day 17) was 0 (8×) and 1.83 (2×) and 5 and 3.5. For the same molecule, the Hind paw volume (AIA rats, day 17, in mL (unit assumed)) was 1.14 and 2.03 and 1.62 and 0.88 and 1.12 and 1.28 and 1.06 and 1.41 and 1.09 and 1.03 and 2.61 and 1.88, the clinical scores (AIA rats, day 19) was 0 (7×) and 2.5 and 4 and 0.5 and 2 and 4.25 and the Hind paw volume (AIA rats, day 19, in mL (unit assumed)) was 1.42 and 3.18 and 2.26 and 1.39 and 1.25 and 1.37 and 1.26 and 1.65 and 1.28 and 1.38 and 2.43 and 2.78. For the same molecule, the Hind paw volume (AIA rats, day 21) was 1 and 3.15 and 1.95 and 1.08 (2×) and 0.86 and 1.09 and 1.33 and 1.04 and 1.14 and 2.65 and 2.14, the clinical scores (AIA rats, day 21) was 0 (7×) and 2.67 and 5.33 and 0.5 and 2 and 4.17 and the Hind paw volume (AIA rats, day 23) was 0.99 and 3.36 and 2.21 and 1.25 and 0.88 and 0.93 and 0.96 and 1.26 and 1.08 (2×) and 2.87 and 1.89. The clinical scores (AIA rats, day 23) was 0 (7×) and 3 and 4 (2×) and 0.5 and 2.5, the “Clinical scores compared to the control rats” value (days 13-23) was “significant reductions in clinical scores” and the “Hind paw volume compared to the control rats” value (days 17-23) was “significantly decreased”.
